Reference: ChEMBL document CHEMBL4765274, “The development of advanced structural framework as multi-target-directed ligands for the treatment of Alzheimer's disease” (Eur J Med Chem, 2020)
Calls of active or inactive are those of the source. The calls are words filed in the database; no cut-off is given here. Peptide text beside a SMILES is read from it. * marks the point of attachment. Cbz = O=C(OCc1ccccc1)*

What was measured:
[1] = Selectivity index, ratio of IC50 for inhibition of equine serum BChE to IC50 for inhibition of electric eel AChE
Cholinesterase [2] = molecular target: Cholinesterase (Equus caballus, UniProt P81908); assay: Inhibition of equine serum BChE by Ellman's method; format: cell-free
Cholinesterase (Equus caballus, UniProt P81908), sequence (P81908 whole entry): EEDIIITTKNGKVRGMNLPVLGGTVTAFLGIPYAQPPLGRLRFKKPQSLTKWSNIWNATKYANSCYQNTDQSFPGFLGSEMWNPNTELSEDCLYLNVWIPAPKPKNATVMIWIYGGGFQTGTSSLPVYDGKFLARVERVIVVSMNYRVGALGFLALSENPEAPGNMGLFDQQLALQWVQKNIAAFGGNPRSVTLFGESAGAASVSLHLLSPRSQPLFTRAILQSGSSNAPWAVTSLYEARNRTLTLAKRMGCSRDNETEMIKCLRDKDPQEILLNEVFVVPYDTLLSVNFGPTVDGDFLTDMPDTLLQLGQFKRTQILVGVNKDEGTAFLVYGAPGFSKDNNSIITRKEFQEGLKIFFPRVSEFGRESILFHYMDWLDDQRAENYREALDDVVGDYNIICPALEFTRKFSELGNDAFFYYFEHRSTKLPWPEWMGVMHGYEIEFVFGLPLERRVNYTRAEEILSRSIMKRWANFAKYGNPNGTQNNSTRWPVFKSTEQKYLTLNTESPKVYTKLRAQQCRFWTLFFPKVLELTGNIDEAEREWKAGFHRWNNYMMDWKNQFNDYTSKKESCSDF

Acetylcholinesterase [3] = molecular target: Acetylcholinesterase (Electrophorus electricus, UniProt O42275); assay: Inhibition of electric eel AChE by Ellman's method
Acetylcholinesterase (Electrophorus electricus, UniProt O42275), sequence (O42275 whole entry): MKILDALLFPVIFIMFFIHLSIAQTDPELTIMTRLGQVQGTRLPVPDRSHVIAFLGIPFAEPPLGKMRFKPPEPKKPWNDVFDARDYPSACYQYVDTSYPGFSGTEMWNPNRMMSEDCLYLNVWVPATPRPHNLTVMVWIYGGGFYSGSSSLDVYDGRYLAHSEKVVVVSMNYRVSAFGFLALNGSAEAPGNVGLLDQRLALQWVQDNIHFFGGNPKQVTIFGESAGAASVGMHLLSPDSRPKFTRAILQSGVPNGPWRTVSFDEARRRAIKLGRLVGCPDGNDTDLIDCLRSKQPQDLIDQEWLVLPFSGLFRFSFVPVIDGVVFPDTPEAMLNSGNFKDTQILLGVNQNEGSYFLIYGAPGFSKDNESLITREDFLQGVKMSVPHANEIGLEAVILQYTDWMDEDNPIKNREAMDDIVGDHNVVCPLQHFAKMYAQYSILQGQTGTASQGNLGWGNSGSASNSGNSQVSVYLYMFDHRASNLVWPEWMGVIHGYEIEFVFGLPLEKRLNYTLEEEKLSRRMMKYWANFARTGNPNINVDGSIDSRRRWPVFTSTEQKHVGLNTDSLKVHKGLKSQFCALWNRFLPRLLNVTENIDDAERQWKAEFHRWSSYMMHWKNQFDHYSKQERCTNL

Cholinesterase [4] = molecular target: T1, Cholinesterase (Homo sapiens, UniProt P06276); assay: Inhibition of human serum BChE by Ellman's method; format: cell-free
T1 sequence (P06276 whole entry): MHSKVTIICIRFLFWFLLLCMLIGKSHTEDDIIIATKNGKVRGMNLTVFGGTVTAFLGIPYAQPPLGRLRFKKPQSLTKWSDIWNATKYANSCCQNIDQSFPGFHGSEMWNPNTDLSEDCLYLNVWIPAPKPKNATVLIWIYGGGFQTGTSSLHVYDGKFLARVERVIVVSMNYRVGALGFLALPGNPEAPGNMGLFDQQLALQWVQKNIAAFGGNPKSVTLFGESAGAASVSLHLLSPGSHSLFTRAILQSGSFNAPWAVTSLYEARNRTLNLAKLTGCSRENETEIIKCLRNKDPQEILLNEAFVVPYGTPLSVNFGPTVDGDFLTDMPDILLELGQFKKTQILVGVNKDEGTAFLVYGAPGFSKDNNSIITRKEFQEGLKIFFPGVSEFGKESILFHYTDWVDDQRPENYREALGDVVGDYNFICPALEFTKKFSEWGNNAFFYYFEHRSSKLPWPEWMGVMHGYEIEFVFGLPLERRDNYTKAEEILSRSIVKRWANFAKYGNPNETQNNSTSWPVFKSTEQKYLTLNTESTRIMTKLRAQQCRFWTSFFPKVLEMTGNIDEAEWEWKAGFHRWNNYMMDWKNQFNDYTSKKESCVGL

Acetylcholinesterase [5] = molecular target: T2, Acetylcholinesterase (Homo sapiens, UniProt P22303); assay: Inhibition of AChE in human erythrocytes by Ellman's method; format: cell-based, Erythrocyte
T2 sequence (P22303 whole entry): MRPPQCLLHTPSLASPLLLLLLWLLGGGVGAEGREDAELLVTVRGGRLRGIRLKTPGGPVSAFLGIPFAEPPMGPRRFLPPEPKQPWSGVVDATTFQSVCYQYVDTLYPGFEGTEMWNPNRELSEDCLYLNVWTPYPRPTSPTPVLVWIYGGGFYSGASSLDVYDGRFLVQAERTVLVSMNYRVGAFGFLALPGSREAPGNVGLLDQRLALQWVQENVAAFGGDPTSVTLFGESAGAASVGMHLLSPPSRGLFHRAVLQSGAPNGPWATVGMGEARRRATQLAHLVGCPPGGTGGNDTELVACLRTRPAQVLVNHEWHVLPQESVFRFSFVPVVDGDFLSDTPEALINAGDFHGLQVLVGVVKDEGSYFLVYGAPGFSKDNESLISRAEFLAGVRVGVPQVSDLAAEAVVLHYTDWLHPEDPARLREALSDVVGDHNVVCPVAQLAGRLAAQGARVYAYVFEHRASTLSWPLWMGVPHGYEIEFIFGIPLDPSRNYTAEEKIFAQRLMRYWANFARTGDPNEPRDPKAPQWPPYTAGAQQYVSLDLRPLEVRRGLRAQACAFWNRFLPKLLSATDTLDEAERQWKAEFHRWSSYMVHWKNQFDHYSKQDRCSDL

[6] = Antioxidant activity assessed as trolox equivalent of AAPH radical scavenging activity measured every min for 4 hrs by ORAC-FL assay relative to trolox; format: functional
Cholinesterase [7] = molecular target: T1, Cholinesterase; assay: Inhibition of human serum BChE by Ellman's method relative to control; format: cell-free; design: concentration or dose not given beside the values; settings: concentration not given here
Cholinesterase [8] = molecular target: T1, Cholinesterase; assay: Inhibition of human serum BChE at 25 uM by Ellman's method relative to control; format: cell-free
[9] = molecular target: Cholinesterase (Equus caballus) (UniProt P81908); assay: Inhibition of equine serum BChE at 25 uM by Ellman's method relative to control; format: cell-free
Cholinesterase (Equus caballus), sequence (P81908 whole entry): as the sequence (P81908 whole entry) above

Acetylcholinesterase [10] = molecular target: T2, Acetylcholinesterase; assay: Inhibition of AChE in human erythrocytes at 25 uM by Ellman's method relative to control; format: cell-based; settings: Erythrocyte
[11] = molecular target: Acetylcholinesterase (Electrophorus electricus) (UniProt O42275); assay: Inhibition of electric eel AChE at 25 uM by Ellman's method relative to control
Acetylcholinesterase (Electrophorus electricus), sequence (O42275 24-633 limits assumed): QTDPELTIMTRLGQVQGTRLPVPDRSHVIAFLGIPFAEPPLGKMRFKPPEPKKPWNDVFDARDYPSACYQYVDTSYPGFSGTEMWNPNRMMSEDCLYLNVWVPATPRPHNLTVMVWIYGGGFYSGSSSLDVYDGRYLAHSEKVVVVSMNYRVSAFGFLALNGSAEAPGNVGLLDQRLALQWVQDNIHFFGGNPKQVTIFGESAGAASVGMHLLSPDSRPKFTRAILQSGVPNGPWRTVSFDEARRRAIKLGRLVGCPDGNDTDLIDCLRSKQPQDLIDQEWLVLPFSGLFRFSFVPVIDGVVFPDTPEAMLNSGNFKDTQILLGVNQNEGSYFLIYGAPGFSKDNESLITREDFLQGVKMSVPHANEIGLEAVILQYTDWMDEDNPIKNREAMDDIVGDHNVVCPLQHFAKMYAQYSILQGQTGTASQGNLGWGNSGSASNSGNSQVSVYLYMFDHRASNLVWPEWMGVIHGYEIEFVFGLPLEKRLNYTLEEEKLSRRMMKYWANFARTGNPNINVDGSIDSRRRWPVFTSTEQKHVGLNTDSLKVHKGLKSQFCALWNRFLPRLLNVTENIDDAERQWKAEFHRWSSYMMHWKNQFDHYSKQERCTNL

PC-12 [12] = assay: Neuroprotective activity against H2O2-induced cytotoxicity in rat PC-12 cells assessed as decrease in LDH activity at 1 to 10 uM preincubated for 2 hrs followed by H2O2 addition and measured after 24 hrs by LDH assay; format: functional, cell-based; settings: dose 1-10 µM, time 26.0 hrs
PC-12 [13] = assay: Cytotoxicity against rat PC-12 cells assessed as reduction in cell viability up to 100 uM after 48 hrs by MTT assay; format: cell-based; settings: pc-12, 48 h
SH-SY5Y [14] = assay: Neuroprotective activity against amyloid beta (1 to 42 residues)-induced cytotoxicity in human SH-SY5Y cells assessed as increase in cell viability at 1 to 10 uM incubated for 48 hrs by MTT assay; format: functional, cell-based; settings: dose 1-10 µM
SH-SY5Y [15] = assay: Cytotoxicity against human SH-SY5Y cells assessed as cell viability up to 100 uM after 48 hrs by MTT assay relative to control; format: cell-based
[16] = Inhibition of self-induced amyloid beta (1 to 42 residues) (unknown origin) aggregation by thioflavin T based fluorescence assay; design: species or system Homo sapiens
PC-12 [17] = assay: Neuroprotective activity against H2O2-induced cytotoxicity in rat PC-12 cells assessed as increase in cell viability preincubated for 2 hrs followed by H2O2 addition and measured after 24 hrs by MTT assay; format: functional, cell-based; settings: dose 1-10 µM, time 26.0 hrs
[18] = Effective permeability of compound at 100 ug/m by PAMPA-BBB assay; format: ADME; settings: read-out: Peff
[19] = Cytotoxicity against rat PC-12 cells assessed as cell viability at 100 uM after 48 hrs by MTT assay relative to control; format: cell-based; settings: read-out: Activity
HT-22 [20] = assay: Inhibition of ubiquitin-proteasome system in mouse HT-22 cells expressing YFP-CLI assessed as increase in GFP level at 0.5 uM after 24 hrs by flow cytometric analysis; format: cell-based
HT-22 [21] = assay: Inhibition of ubiquitin-proteasome system in mouse HT-22 cells expressing YFP-CLI assessed as increase in GFP level at 0.5 uM after 24 hrs by fluorescence microscopic method; format: cell-based
[22] = Inhibition of Cu2+-induced amyloid beta (1 to 42 residues) (unknown origin) aggregation at 25 uM after 24 hrs by thioflavin-T fluorescence method relative to control
Mus musculus = assay: Antialzheimer activity in scopolamine-induced Kunming mouse model of memory impairment assessed as latency time at 5 mg/kg , po by step-down passive avoidance test (reference value: 125.65 sec); format: functional
Danio rerio = species: Danio rerio; assay: Antialzheimer activity in Alcl3-induced zebra fish AD model assessed as increase in motility at 8 uM relative to control; format: functional
[23] = Disaggregation of Cu2+ induced amyloid beta (1 to 42 residues) (unknown origin) aggregation at 25 uM by thioflavin-T fluorescence method relative to control
Homo sapiens = species: Homo sapiens; assay: Inhibition of self-induced amyloid beta (1 to 42 residues) (unknown origin) aggregation at 25 uM by thioflavin T based fluorescence assay relative to control

| Structure (SMILES) | Ratio IC50 [1] | IC50 (Cholinesterase [2]) | IC50 (Acetylcholinesterase [3]) | IC50 (Cholinesterase [4]) | IC50 (Acetylcholinesterase [5]) | fold change (FC) [6] | other results |
| --- | --- | --- | --- | --- | --- | --- | --- |
| O=C(/C=C/c1ccc(OCCCCN2CCC(Cc3ccccc3)CC2)cc1)c1c(O)cc(OCCCCN2CCC(Cc3ccccc3)CC2)cc1O | 2.8 | 46.1 µM | 16.3 µM | 9.4 µM | 11.9 µM | 1.1 | – |
| O=C1CC(c2ccc(OCCCCN3CCc4ccccc4C3)cc2)Oc2cc(OCCCCN3CCc4ccccc4C3)cc(O)c21 (stereo not drawn) | – | – | 16.8 µM | 20.1 µM | 13.2 µM | 1.2 | inhibition (Cholinesterase [7]): 8.8% |
| O=C(/C=C/c1ccc(OCCCCN2CCCC2)cc1)c1c(O)cc(OCCCCN2CCCC2)cc1O | 1.4 | 8.19 µM | 5.71 µM | 1.8 µM | 3.2 µM | 0.93 | – |
| O=c1c(-c2ccc(OCCCCN3CCC(Cc4ccccc4)CC3)cc2)coc2cc(OCCCCN3CCC(Cc4ccccc4)CC3)cc(O)c12 | 4.4 | 31.8 µM | 7.2 µM | 11.9 µM | 7.3 µM | 1.2 | – |
| O=C1CC(c2ccc(OCCCCN3CCN(Cc4ccccc4)CC3)cc2)Oc2cc(OCCCCN3CCN(Cc4ccccc4)CC3)cc(O)c21 (stereo not drawn) | – | – | 11.6 µM | 21.4 µM | 18.7 µM | 1.7 | inhibition (Cholinesterase [7]): 12.2% |
| O=c1c(-c2ccc(O)cc2)coc2cc(O)cc(O)c12 | – | – | – | – | – | 5.1 | inhibition (Cholinesterase [8]): < 5%; inhibition [9]: < 5% |
| O=c1cc(-c2ccc(OCCCCN3CCC(Cc4ccccc4)CC3)cc2)oc2cc(OCCCCN3CCC(Cc4ccccc4)CC3)cc(O)c12 | 1.8 | 19.7 µM | 10.8 µM | 12.9 µM | 0.67 µM | 1.1 | – |
| O=C1CC(c2ccc(OCCCCN3CCC(Cc4ccccc4)CC3)cc2)Oc2cc(OCCCCN3CCC(Cc4ccccc4)CC3)cc(O)c21 (stereo not drawn) | 0.93 | 7.5 µM | 8.1 µM | 18.7 µM | 7.6 µM | 0.98 | – |
| O=C(/C=C/c1ccc(OCCCCN2CCCCC2)cc1)c1c(O)cc(OCCCCN2CCCCC2)cc1O | 2 | 7.2 µM | 3.52 µM | 3.7 µM | 5.1 µM | 1.1 | – |
| CCN(CC)CCCCOc1ccc(/C=C/C(=O)c2c(O)cc(OCCCCN(CC)CC)cc2O)cc1 | 4.9 | 30.8 µM | 6.24 µM | 8.3 µM | 4.7 µM | 0.9 | – |
| O=C(C=Cc1ccccc1)c1ccccc1 | – | – | – | – | – | 2.6 | inhibition (Cholinesterase [8]): < 5%; inhibition [9]: < 5%; inhibition (Acetylcholinesterase [10]): < 5%; inhibition [11]: < 5% |
| CCN(CCCCOc1ccc(C2CC(=O)c3c(O)cc(OCCCCN(CC)Cc4ccccc4OC)cc3O2)cc1)Cc1ccccc1OC (stereo not drawn) | 4.1 | 21.9 µM | 5.3 µM | 15.6 µM | 4.3 µM | 1.3 | Activity (PC-12 [12]): Active; Activity (PC-12 [13]): Non-Toxic; Activity (SH-SY5Y [14]): Active; Activity (SH-SY5Y [15]): Non-Toxic; IC50 ([16]; read-out: IC50): 30.9 µM; Activity (PC-12 [17]): Dose-dependent effect |
| O=c1cc(-c2ccc(O)cc2)oc2cc(O)cc(O)c12 [APIGENIN] | – | – | – | – | – | 6.1 | inhibition (Cholinesterase [8]): < 5%; Papp at 100 ug/m [18]: 15.7 ×10⁻⁶ cm/s; inhibition [9]: < 5%; inhibition (Acetylcholinesterase [10]): < 5%; inhibition [11]: < 5% |
| O=c1cc(-c2ccc(OCCCCN3CCN(Cc4ccccc4)CC3)cc2)oc2cc(OCCCCN3CCN(Cc4ccccc4)CC3)cc(O)c12 | 1.4 | 37.5 µM | 26.8 µM | 10.7 µM | 1 µM | 1.8 | – |
| CCN(CCCCOc1ccc(/C=C/C(=O)c2c(O)cc(OCCCCN(CC)Cc3ccccc3OC)cc2O)cc1)Cc1ccccc1OC | 13.4 | 15.6 µM | 1.16 µM | 5.2 µM | 1.3 µM | 1.3 | viability at 48 h, 100 µM [19]: 55.6%; Activity (PC-12 [12]): Active; Activity (SH-SY5Y [14]): Active; Activity (SH-SY5Y [15]): Toxic; IC50 ([16]; read-out: IC50): 3.7 µM |
| CC(C)C[C@@H](C=O)NC(=O)[C@H](CC(C)C)NC(=O)[C@H](CC(C)C)NC(=O)OCc1ccccc1 (Cbz-Leu-Leu-Leu-aldehyde) | – | – | – | – | – | – | inhibition (HT-22 [20]): Active; inhibition (HT-22 [21]): Active |
| COc1cc2c(cc1OC)C(=O)C(CC1CCN(Cc3ccccc3)CC1)C2 (stereo not drawn) [DONEPEZIL] | – | – | – | – | – | – | inhibition [22]: inactive; Time (Mus musculus): 251.42 s; Activity (Danio rerio): 55%; IC50 [16]: Not Active |
| O=c1c(-c2ccc(OCCCCN3CCc4ccccc4C3)cc2)coc2cc(OCCCCN3CCc4ccccc4C3)cc(O)c12 | 3.9 | 52.6 µM | 13.5 µM | 13.7 µM | 8.1 µM | 1.1 | – |
| O=C1C[C@@H](c2ccc(O)cc2)Oc2cc(O)cc(O)c21 | – | – | – | – | – | 5.5 | inhibition (Cholinesterase [8]): < 5%; inhibition [9]: < 5%; inhibition (Acetylcholinesterase [10]): < 5%; inhibition [11]: < 5% |
| CC1c2ccccc2CCN1CCCCOc1ccc(-c2coc3cc(OCCCCN4CCc5ccccc5C4C)cc(O)c3c2=O)cc1 (stereo not drawn) | – | – | 1.8 µM | 12.4 µM | 5.3 µM | 1.3 | inhibition (Cholinesterase [7]): 19% |
| CCN(CCCCOc1ccc(-c2coc3cc(OCCCCN(CC)Cc4ccccc4)cc(O)c3c2=O)cc1)Cc1ccccc1 | – | – | 2.3 µM | 18.2 µM | 2.1 µM | 1.4 | inhibition (Cholinesterase [7]): 12% |
| O=c1c(-c2ccc(OCCCCN3CCN(Cc4ccccc4)CC3)cc2)coc2cc(OCCCCN3CCN(Cc4ccccc4)CC3)cc(O)c12 | – | – | 19.8 µM | 26.4 µM | 25.1 µM | 1.8 | inhibition (Cholinesterase [7]): 5.8% |
| COc1cc(/C=C/C(=O)CC(=O)/C=C/c2ccc(O)c(OC)c2)ccc1O | – | – | – | – | – | – | Activity [23]: 56.1%; inhibition [22]: 53.6%; inhibition (Homo sapiens): 43.7% |
| O=c1c(-c2ccc(OCCCCN3CCCCC3)cc2)coc2cc(OCCCCN3CCCCC3)cc(O)c12 | 4.2 | 2.2 µM | 0.52 µM | 19.6 µM | 0.81 µM | 1.2 | Activity (PC-12 [12]): Active; Activity (PC-12 [13]): Non-Toxic; Activity (SH-SY5Y [14]): Active; Activity (SH-SY5Y [15]): Non-Toxic; IC50 ([16]; read-out: IC50): 19.6 µM; Activity (PC-12 [17]): Dose-dependent effect |
| O=c1cc(-c2ccc(OCCCCN3CCc4ccccc4C3)cc2)oc2cc(OCCCCN3CCc4ccccc4C3)cc(O)c12 | 0.96 | 17.5 µM | 18.2 µM | 15.8 µM | 0.59 µM | 1.3 | – |
